Experimental data from patent US10799456B2, “Multiple drug lipid nanoparticle composition and related methods for extended drug levels in blood and lymph tissue” (priority 2015, dated 2020).

Columns and labels:
in vivo [1] = conditions: male, Macaca nemestrina, in vivo, sc, Mean drug concentration, Lymph node
Procedure: (§1) Four macaques were divided into two treatment groups (two animals per group). […] Data were normalized to the anti-HIV LNP dose for comparative analysis.
(§2) Plasma was removed, PBMCs were isolated by the density gradient method, and cells were aliquoted into pellets of approximately 2 million PBMCs each. An inguinal lymph node was surgically excised 24 h after drug administration (n=2 per treatment), LNMCs were isolated by passage through a 100-lm nylon cell strainer (Corning, Tewksbury, Mass.), and cells were aliquoted into pellets of approximately 1-2 million LNMCs each. All samples were stored at −80° C. prior to drug analysis.
(§3) Plasma concentrations of all three drugs were analyzed simultaneously by liquid chromatography-tandem mass spectrometry using a recently published method. […] Antimicrob Agents Chemother 2014; 58(5):2675-2680, incorporated herein by reference in its entirety. PBMC and LNMC pellets were lysed using 200 μl water/methanol (1:1 v/v), sonicated for 10 min, and then extracted and analyzed using the same method as cited above. Intracellular concentrations were converted to ng/ml with the assumption that each cell has a volume of 4×10^−9 ml. Alberts B, Johnson A, Lewis J, et al. Molecular Biology of the Cell, 4 ed. Garland Science, New York, 2002, incorporated herein by reference in its entirety.

[2] = Drug incorporation/encapsulation (association) efficiency of multi-drug LNPs by dialysis; assay type: physicochemical; conditions: for Degree of incorporation (% total): anti-HIV LNPs LPV/RTV/PMPA
Procedure: The anti-HIV LNP formulations contain both unbound drug and drugs bound to lipid nanoparticles. […] Drugs were quantified by LC-MS/MS using acetonitrile precipitation. Encapsulation efficiency (EE) was calculated as follows: […]

[3] = cited from earlier work
[4] = pH dependent drug release from LPV/RTV/TFV lipid nanoparticles; assay type: physicochemical; conditions: 2 hrs
From the text: As described above, we established the pH-dependent association of various drugs to lipids at neutral pH and the consequent release of the drugs when pH is lowered. Also described above, this stable integration and pH-dependent release of drugs from the multiple drug lipid nanoparticles was consistent for both lipophilic and water soluble compounds. To confirm the pH dependent release of the individual drugs from the multiple drug combination lipid nanoparticles, LPV/RTV/PMPA(TFV) lipid nanoparticles, assembled as described above, were subjected to different pH environments, and the free drug component of the supernatant was assayed to determine the amount of release. […] When a lipid nanoparticle is localized in tissues and taken up by HIV-infected cells, the incorporated antiretroviral drugs are then released inside the cell organelles (such as endosome and lysosomes) when the pH is lowered.

HIV-1 = experiment: microbe, parasite or virus in culture; conditions: Human immunodeficiency virus 1, read-out: EC50 in LNP form
in vivo [5] = conditions: for concentration at 24 h: sc, Mean drug concentration, Plasma
From the text: Four young adult male macaques (Macaca nemestrina, 2.9-4.0 kg) were housed and cared for by the Washington National Primate Research Center (WaNPRC) under an approved Institutional Animal Care and Use Committee protocol.
The vehicle for the first suspension was bicarbonate-buffered saline with 3% ethanol and 0.2% bovine serum albumin. The vehicle for the second suspension was bicarbonate-buffered saline with 8% DMSO and 0.1% Tween 20.
as §1, §2, §3
Data were analyzed by paired two-tailed Student's t-test with p<0.05 considered statistically significant.

[6] = Sucrose gradient test of drug association; assay type: physicochemical; conditions: 5-20% sucrose gradient, 200,000 g, 4 hr; LPV/RTV/TFV LNPs, single miscible solvent method
Procedure: The sucrose gradient test to determine this characteristic is described in Example 5. Briefly, the sucrose gradient test comprises subjecting the multi-drug lipid nanoparticle to a continuous 5%-20% sucrose gradient and applying a centrifugal force of 200,000 g for 4 hours. The unassociated small molecules separate and float to the less dense fractions, whereas the associated small molecule agents sediment with the stable lipid nanoparticles in the denser gradients. The relative amounts of the unassociated and associated small molecule reagents can be quantified and, thus, compared.
The sucrose gradient test centrifugation test separates any unbound drugs from multi-drug lipid nanoparticles by sedimentation of lipid-drug particles through a sucrose gradient with increasing density to strip off unbound drugs. Under these conditions, all the free drugs in solution remained at (or floated to) the top of gradient where the sucrose density is low. Specifically, using a continuous gradient of 5-20% (with 65% cushion) sucrose, the lipid-drug particle mixture was subjected to centrifugal force at 200,000 g for 4 hr. Through this process, we were able to separate bound and unbound drug fractions. […] It is noted that the observed percentage of multi drug lipid nanoparticle association for the other two drugs (LPV and RTV) are consistent with data in Table 11.

[7] = % Drug association to particles by assembly method; assay type: physicochemical
From the text: Select one or two drugs hydrophilic and water soluble (Class 2) drugs listed in Table 19 (for example, tenofovir and/or emtricitabine and/or lamivudine). • 3. Select the excipient combination (for example, 9 parts DSPC and 1 part PEG-DSPE). • 4. Prepare a single-phase miscible solvent that enables full solubilization of the chosen water-insoluble Class 1 drugs and water soluble Class 2 drugs plus the excipients from step 3. Examples include CHCl3:Methanol:Water (65:35:4); CHCl3:Ethanol:Water (65:35:4); CHCl3:Propanol:Water (65:35:4); and CHCl3:Hexanol:Water (65:35:4). • 5. The components in Steps 1, 2 and 3 are solubilized with the miscible solvent in step 4. • 6. The drugs (steps 1 and 2) as well as excipients (step 3) and the miscible solvent (step 4) are dried under reduced pressure with assistance of a combination of heat, reduced pressure and/or aerosolization to provide for uniformity and efficiency of drying. • 7. The dehydrated composition is heated above gel-to-liquid phase transition temperature of the excipient mixture (e.g., 50° C.). • 8. A buffered saline solution is prepared and the temperature is equilibrated to the same temperature as dehydrated composition. • 9. The buffered saline solution and dehydrated composition are gradually combined and maintained at the defined (e.g., 50° C.) for 3 hr. • 10. The resulting hydrated multi-drug lipid nanoparticles are size-reduced by sheering or forcing through small orifice or pressurized filter apparatus while maintaining at the defined temperature (in liquid phase of lipidic excipients).

[8] = Storage stability at 4° C. (fraction of drug bound, dialysis); assay type: physicochemical
Procedure: To test the long-term stability, the multi-drug nanoparticles were stored under refrigeration at 4° C. and were tested for stability after a prolonged period. The lipid-drug combination particles are stable as determined by both particle size and degree of drug association (Table 12). […] Even the hydrophilic compound, which readily diffuses out of most lipid particles in a number of hours, loses a remarkably low fraction of the associated drug after 8, 12, and 17 months in storage. This exceptional stability provides a substantial advantage for translation to clinical application.

HIV-2(287) replication = experiment: Antiviral activity in HIV-infected CEM-174 cells; assay type: cell-based; conditions: Human immunodeficiency virus 2, CEM174, LPV:RTV:PMPA fixed 1:1:0.5 (m/m/m), LNP form; read-out: EC50 (nM), Drug-lipid nanoparticles with 3 drug combination
Procedure: The antiviral activity of the three-drug combination in soluble or LNP form was evaluated in HIV-infected CEM-174 cells as described previously. […] J Acquir Immune Defic Syndr 2003; 34(4):387-397, incorporated herein by reference in its entirety. […] The dose of drugs added to cells represents the sum of bound and unbound drugs in these anti-HIV LNP formulations.

[9] = male, Macaca nemestrina, in vivo

With `Cc1cccc(C)c1OCC(=O)N[C@@H](Cc1ccccc1)[C@@H](O)C[C@H](Cc1ccccc1)NC(=O)[C@H](C(C)C)N1CCCNC1=O` [Lopinavir (LPV), Lopinavir] the concentration at 24 h (in vivo [1]; Anti-HIV LNP treatment) was 1212 ± 9.8 ng/mL, the concentration at 24 h (in vivo [1]; Free drug treatment) was 0 ng/mL and the “% particle-bound” value ([2]; Combination 1, lipid:LPV:RTV:TFV 115:10:5:15, large scale) was “(86.4 ± 0.9) %”. For the same molecule, the “% particle-bound” value ([2]; Combination 3, lipid:LPV:EFV:TFV 200:26.6:20:40, large scale) was “(76.6) %”, the “Degree of incorporation (% total)” value ([2]; clinical scale (15-40 ml)) was 93.6 ± 5.5% and the “Degree of incorporation (% total)” value ([2]; laboratory scale (0.1-0.4 ml)) was 74.2 ± 7.3%. For the same molecule, the “Water solubility @ 25° C.” value [3] was 7.7 ng/mL, the “% Drug released from anti-HIV nanoparticles” value (from here on “% Drug released”) ([4]; pH 4.0, 37° C.) was 93.7 ± 1.2% and the “% Drug released” value ([4]; pH 5.5, 37° C.) was 28.9 ± 1.4%. For the same molecule, the “% Drug released” value ([4]; pH 6.5, 37° C.) was 3.9 ± 2.7%, the “% Drug released” value ([4]; pH 7.4, 37° C.) was 1 ± 0.6% and the EC50 (HIV-1) was 30 ± 0.8 nM. The “AUC 0-8 (%) of total, LNP” value (in vivo [5]; [9]) was 9.9%, the “AUC 8-168 (%) of total, LNP” value (in vivo [5]; [9]) was 90.1% and the “AUC fraction (% of total) Anti-HIV LNP 24-168 h” value (in vivo [5]; [9]) was 62.8 ± 9.9%. For the same molecule, the concentration at 24 h (in vivo [5]; male, Macaca nemestrina, in vivo, Anti-HIV LNP treatment) was 596 ± 123 ng/mL, the concentration at 24 h (in vivo [5]; male, Macaca nemestrina, in vivo, Free drug treatment) was 24.5 ± 26.3 ng/mL and the “AUC Free drug 0-168 h” value (in vivo [5]; plasma, sc 25/14.3/17.1 mg/kg LPV/RTV/PMPA, four animals) was 3830 ± 4040 ng·h/mL. For the same molecule, the “% association to lipid-drug particles (bound fraction)” value [6] was 81.8%, the “% Drug Association to Particles, LNPs from mixture of dual solvent method” value [7] was 80-100% and the “% Drug Association to Particles, LNPs from single, miscible solvent method” value [7] was 90-100%. The “Fraction of drug bound in multi-drug nanoparticles (% total)” value (shortened to “Fraction of drug bound … (% total)”) ([8]; 0 months) was 82.70 ± 7.00%, the “Fraction of drug bound … (% total)” value ([8]; 8 months) was 95.33 ± 7.53% and the “Fraction of drug bound … (% total)” value ([8]; 12 months) was 94.62 ± 11.86%. The “Fraction of drug bound … (% total)” value ([8]; 17 months, one batch) was 92.89% and the EC50 (HIV-2(287) replication) was 3 ± 0.8 nM.
